Results: US20250188110A1, “SPECIFIC SMALL MOLECULE INHIBITORS THAT BLOCK KMT9 METHYLTRANSFERASE ACTIVITY AND FUNCTION” (ALBERT-LUDWIGS-UNIVERSITÄT FREIBURG, priority 2021, published 2025)
Like-named read-outs stand apart in the source and are kept apart here.

Key:
KMT9 [1] = target: T1, KMT9 (Homo sapiens, UniProt Q9Y5N5); assay: KMT9 methyltransferase inhibition assay, MTaseGlo luminescence (from entry 155); type: biochemical; conditions: 100 nM KMT9, 5 μM ETF1, 1 μM SAM
T1 sequence (Q9Y5N5 1-214): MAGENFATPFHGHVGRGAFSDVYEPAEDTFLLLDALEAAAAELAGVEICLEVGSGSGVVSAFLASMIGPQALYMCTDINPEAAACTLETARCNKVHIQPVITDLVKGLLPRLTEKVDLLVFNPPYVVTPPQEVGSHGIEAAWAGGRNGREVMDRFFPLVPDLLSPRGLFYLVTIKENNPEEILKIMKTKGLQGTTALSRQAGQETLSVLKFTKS
T1 sequence (Q9UI30 1-120 isoform Q9UI30-2 partner): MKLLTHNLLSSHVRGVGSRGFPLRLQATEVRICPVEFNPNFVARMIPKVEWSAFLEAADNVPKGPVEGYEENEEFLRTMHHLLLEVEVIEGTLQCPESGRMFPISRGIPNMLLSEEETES
In short: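 KMT9 (100 nM final) pre-incubated with inhibitor for 15 min at room temperature, then reacted with 5 μM ETF1 and 1 μM SAM for 2 h at 30° C. at 2% DMSO final. MTaseGlo luminescence read after 60 min detection; IC50 reported in four potency bins.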

KMT9 [2] = target: T1, KMT9; assay: Microscale thermophoresis (MST) KMT9 binding
In short: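 Kd from microscale thermophoresis: compound series against 20 nM His-KMT9 labelled via RED-Tris-NTA, buffer 25 mM HEPES (pH 7.5)/100 mM NaCl/1 mM DTT/0.05% Tween, 40% MST power, 100% LED. Reported as classes: A ≤10 nM, B >10–100 nM, C >100–1000 nM, D >1000 nM.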

KMT9 [3] = target: T1, KMT9; assay: KMT9 thermal shift assay (SyproOrange); type: binding
In short: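 ΔTm versus DMSO-only control is reported in bins (>20 K, 15–20 K, 10–15 K, ≤10 K), using Tm from Boltzmann sigmoidal fits of SyproOrange melt curves. KMT9 with compound in pH 8.5 BTP buffer containing MgCl2 and DTT was preincubated at 25° C, then ramped 1° C per 15 s up to 95° C.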

[4] = MTaseGlo procedure (entries from 155), read-out: Inhibition (IC50)
[5] = His-tag labelled KMT9 20 nM, read-out: MST (Kd)
[6] = 500 µM compound, 2 μM KMT9, read-out: Thermal shift (ΔTm)
[7] = IC50 class, MTaseGlo procedure (entries from 155 on), read-out: Inhibition
[8] = His-tag labelled KMT9 20 nM, Kd class, read-out: MST
[9] = ΔTm class, 500 uM compound, 2 μM KMT9, read-out: Thermal shift
[10] = from entry 155: MTaseGlo assay, read-out: Inhibition
[11] = microscale thermophoresis, His-tag labelled KMT9 (20 nM), read-out: MST
[12] = ΔTm, 500 µM compound, 2 μM KMT9, 5X SO, read-out: Thermal shift

| Structure (SMILES) | IC50 (KMT9 [1]; [4]) [nM] | Kd (KMT9 [2]; [5]) [nM] | ΔTm at 500 µM (KMT9 [3]; [6]) [°C] | further results |
| --- | --- | --- | --- | --- |
| CN1CCCC([C@H]2C[C@@H](n3cc(-c4nc(Cc5ccccc5)cs4)c4cnc(Cl)nc43)[C@H](O)[C@@H]2O)C1 (stereo partly drawn) [Compound 515, (1R,2S,3R)-3-[5-(4-benzyl-1,3-thiazol-2-yl)-2-chloropyrrolo[2,3-d]pyrimidin-7-yl]-5-(1-methylpiperidin-3-yl)cyclopentane-1,2-diol] |  |  |  | IC50 (KMT9 [1]; [7]): 1000 to 10000 nM; Kd (KMT9 [2]; [8]): 100 to 1000 nM; ΔTm at 500 µM (KMT9 [3]; [9]): 15 to 20 °C |
| COc1cccc([C@H]2C[C@@H](n3cc(Br)c4c(N)nc(Cl)nc43)[C@H](O)[C@@H]2O)c1 [Compound 669, (1R,2S,3R,5R)-3-(4-amino-5-bromo-2-chloro-7H-pyrrolo[2,3-d]pyrimidin-7-yl)-5-(3-methoxyphenyl)cyclopentane-1,2-diol] | 1000 to 10000 | 10 to 100 | 10 to 15 |  |
| CS(=O)(=O)n1ccc(-c2cn([C@@H]3C[C@H](CNCCCNCCc4ccccc4)[C@@H](O)[C@H]3O)c3nc(Cl)ncc23)n1 [Compound 622, (1R,2S,3R,5R)-3-(2-Chloro-5-(1-(methylsulfonyl)-1H-pyrazol-3-yl)-7H-pyrrolo[2,3-d]pyrimidin-7-yl)-5-(((3-(phenethylamino)propyl)amino)methyl)cyclopentane-1,2-diol] |  |  |  | IC50 (KMT9 [1]; [7]): 100 to 1000 nM; Kd (KMT9 [2]; [8]): 100 to 1000 nM; ΔTm at 500 µM (KMT9 [3]; [9]): 15 to 20 °C |
| NCc1cccc([C@H]2C[C@@H](n3cc(Br)c4c(N)nc(Cl)nc43)[C@H](O)[C@@H]2O)c1 [Compound 393, (1R,2S,3R,5R)-3-(4-amino-5-bromo-2-chloro-7H-pyrrolo[2,3-d]pyrimidin-7-yl)-5-(3-(aminomethyl)phen-yl) cyclopentane-1,2-diol] | 100 to 1000 | ≤ 10 | 15 to 20 |  |
| Nc1ncnc2c1ccn2[C@@H]1C[C@H](c2cn[nH]c2)[C@@H](O)[C@H]1O [Compound 658, (1R,2S,3R,5R)-3-{4-Aminopyrrolo[2,3-d]pyrimidin-7-yl}-5-(1H-pyrazol-4-yl)cyclopentane-1,2-diol] | > 10000 | > 1000 | ≤ 10 |  |
| Nc1ncnc2c1c(-c1nc(Cc3ccccc3)cs1)cn2[C@@H]1C[C@H]([C@H]2CCCNC2)[C@@H](O)[C@H]1O (single isomer, unassigned) [Compound 593S] |  |  |  | IC50 (KMT9 [1]; [10]): 1000 to 10000 nM; Kd (KMT9 [2]; [11]): 100 to 1000 nM; ΔTm at 500 µM (KMT9 [3]; [12]): 10 to 15 °C |
| CN1CCC([C@H]2C[C@@H](n3cc(-c4ccn(Cc5ccccc5)n4)c4cnc(Cl)nc43)[C@H](O)[C@@H]2O)CC1 [Compound 491, (1R,2S,3R,5R)-3-(5-(1-benzyl-1H-pyrazol-3-yl)-2-chloro-7H-pyrrolo[2,3-d]pyrimidin-7-yl)-5-(1-methylpiperidin-4-yl)cyclopentane-1,2-diol] |  |  |  | IC50 (KMT9 [1]; [7]): 100 to 1000 nM; Kd (KMT9 [2]; [8]): 100 to 1000 nM; ΔTm at 500 µM (KMT9 [3]; [9]): 15 to 20 °C |
| Nc1nc(Cl)nc2c1ccn2[C@@H]1C[C@H](c2ccc(=O)[nH]c2)[C@@H](O)[C@H]1O [Compound 590, 5-[(1R,2R,3S,4R)-4-{4-Amino-2-chloropyrrolo[2,3-d]pyrimidin-7-yl}-2,3-dihydroxycyclopentyl]-1H-pyridin-2-one] | 1000 to 10000 | 100 to 1000 | ≤ 10 |  |
| O[C@@H]1[C@H](O)[C@@H](C2CCCN(CCc3ccccc3)C2)C[C@H]1n1cc(-c2nc(Cc3ccccc3)cs2)c2cnc(Cl)nc21 (stereo partly drawn) [Compound 518, (1R,2S,3R,5R)-3-(5-(4-benzylthiazol-2-yl)-2-chloro-7H-pyrrolo[2,3-d]pyrimidin-7-yl)-5-(1-phenethylpiperidin-3-yl)cyclopentane-1,2-diol] |  |  |  | IC50 (KMT9 [1]; [7]): > 10000 nM; Kd (KMT9 [2]; [8]): > 1000 nM; ΔTm at 500 µM (KMT9 [3]; [9]): ≤ 10 °C |
| O[C@@H]1[C@@H](CNCCCNCCc2ccccc2)C[C@@H](n2cc(-c3nc(Cc4ccccc4)cs3)c3cnc(Cl)nc32)[C@@H]1O [Compound 634, (1R,2S,3R,5R)-3-(5-(4-Benzylthiazol-2-yl)-2-chloro-7H-pyrrolo[2,3-d]pyrimidin-7-yl)-5-(((3-(phenethylamino)propyl)amino)methyl)cyclopentane-1,2-diol] |  |  |  | IC50 (KMT9 [1]; [10]): 1000 to 10000 nM; Kd (KMT9 [2]; [11]): 10 to 100 nM; ΔTm at 500 µM (KMT9 [3]; [12]): 15 to 20 °C |
| O[C@@H]1[C@H](O)[C@@H](C2CCN(CCc3ccccc3)CC2)C[C@H]1n1cc(-c2nc(Cc3ccccc3)cs2)c2cnc(Cl)nc21 [Compound 498, (1R,2S,3R,5R)-3-(5-(4-Benzylthiazol-2-yl)-2-chloro-7H-pyrrolo[2,3-d]pyrimidin-7-yl)-5-(1-phenethylpiperidin-4-yl)cyclopentane-1,2-diol] |  |  |  | IC50 (KMT9 [1]; [7]): 1000 to 10000 nM; Kd (KMT9 [2]; [8]): 10 to 100 nM; ΔTm at 500 µM (KMT9 [3]; [9]): 10 to 15 °C |
| O[C@@H]1[C@@H](CNCCCNCCc2ccccc2)C[C@@H](n2cc(-c3cc(Cc4ccccc4)ns3)c3cncnc32)[C@@H]1O [Compound 617, (1R,2S,3R,5R)-3-[5-(3-Benzyl-1,2-thiazol-5-yl)pyrrolo[2,3-d]pyrimidin-7-yl]-5-[({3-[(2-phenylethyl)amino]propyl}amino)methyl]cyclopentane-1,2-diol] |  |  |  | IC50 (KMT9 [1]; [10]): 1000 to 10000 nM; Kd (KMT9 [2]; [11]): > 1000 nM; ΔTm at 500 µM (KMT9 [3]; [12]): 10 to 15 °C |
| Nc1nc(Cl)nc2c1c(-c1ccn(Cc3ccccc3)n1)cn2[C@@H]1C[C@H](CNCCCNCCc2ccccc2)[C@@H](O)[C@H]1O [Compound 636, (1R,2S,3R,5R)-3-(4-Amino-5-(1-benzyl-1H-pyrazol-3-yl)-2-chloro-7H-pyrrolo[2,3-d]pyrimidin-7-yl)-5-(((3-(phenethylamino)propyl)amino)methyl)cyclopentane-1,2-diol] |  |  |  | IC50 (KMT9 [1]; [10]): 100 to 1000 nM; Kd (KMT9 [2]; [11]): ≤ 10 nM; ΔTm at 500 µM (KMT9 [3]; [12]): > 20 °C |
| COc1cc([C@H]2C[C@@H](n3ccc4c(N)nc(Cl)nc43)[C@H](O)[C@@H]2O)ccn1 [Compound 663, (1R,2S,3R,5R)-3-{4-Amino-2-chloropyrrolo[2,3-d]pyrimidin-7-yl}-5-(2-methoxypyridin-4-yl)cyclopentane-1,2-diol] | 100 to 1000 | 10 to 100 | ≤ 10 |  |
| COc1cc(CN)cc([C@H]2C[C@@H](n3ccc4c(N)nc(Cl)nc43)[C@H](O)[C@@H]2O)c1 [Compound 665, (1R,2S,3R,5R)-3-(4-amino-2-chloro-7H-pyrrolo[2,3-d]pyrimidin-7-yl)-5-(3-(aminomethyl)-5-methoxyphenyl)cyclopentane-1,2-diol] | 100 to 1000 | ≤ 10 | 15 to 20 |  |
| CN(CCCNCCc1ccc(F)cc1)C[C@H]1C[C@@H](n2cc(-c3ccn(Cc4ccccc4)n3)c3c(N)nc(Cl)nc32)[C@H](O)[C@@H]1O [Compound 643, (1R,2S,3R,5R)-3-[4-Amino-5-(1-benzylpyrazol-3-yl)-2-chloropyrrolo[2,3-d]pyrimidin-7-yl]-5-{[(3-{[2-(4-fluorophenyl)ethyl]amino}propyl)(methyl)amino]methyl}cyclopentane-1,2-diol] | 100 to 1000 | ≤ 10 | > 20 |  |

Continued, in another order:

| IC50 (KMT9 [1]; [4]) [nM] | Kd (KMT9 [2]; [5]) [nM] | ΔTm at 500 µM (KMT9 [3]; [6]) [°C] | Structure (SMILES) | further results |
| --- | --- | --- | --- | --- |
| 100 to 1000 | 10 to 100 | 15 to 20 | CC(=O)CN1CCC([C@H]2C[C@@H](n3cc(-c4nc(Cc5ccccc5)cs4)c4c(N)nc(Cl)nc43)[C@H](O)[C@@H]2O)CC1 [Compound 510, 1-{4-[(1R,2R,3S,4R)-4-[4-amino-5-(4-benzyl-1,3-thiazol-2-yl)-2-chloropyrrolo[2,3-d]pyrimidin-7-yl]-2,3-dihydroxycyclopentyl]piperidin-1-yl}propan-2-one] |  |
| 100 to 1000 | ≤ 10 | 15 to 20 | CN1CCC[C@@H]([C@H]2C[C@@H](n3cc(-c4nc(Cc5ccccc5)cs4)c4c(N)nc(Cl)nc43)[C@H](O)[C@@H]2O)C1 [Compound 597S, (1R,2S,3R,5R)-3-(4-amino-5-(4-benzylthiazol-2-yl)-2-chloro-7H-pyrrolo[2,3-d]pyrimidin-7-yl)-5-((S)-1-methylpiperidin-3-yl)cyclopentane-1,2-diol] |  |
| 1000 to 10000 | 10 to 100 | 15 to 20 | Nc1nc(Cl)nc2c1c(-c1nc(Cc3ccccc3)cs1)cn2[C@@H]1C[C@H](C2CCN(C[C@H]3CCOC3)CC2)[C@@H](O)[C@H]1O [Compound 521R, (1R,2S,3R,5R)-3-(4-amino-5-(4-benzylthiazol-2-yl)-2-chloro-7H-pyrrolo[2,3-d]pyrimidin-7-yl)-5-(1-(((R)-tetrahydrofuran-3-yl)methyl)piperidin-4-yl)cyclopentane-1,2-diol] |  |
